System: dopamine release, synaptosomes from the striatal area of rat brain
Test: Dopamine release from rat striatal synaptosomes
Type: biochemical, rat (Sprague-Dawley)
Details: [3H]-dopamine release, relative to (S)-(-)-nicotine
Description: Determination of Dopamine Release
Dopamine release was measured by preparing synaptosomes from the striatal area of rat brain obtained from Sprague-Dawley rats generally according to the procedures set forth by Nagy et al., J. Neurochem., Vol. 43, pp. 1114-1123 (1984). Striata from 4 rats were homogenized in 2 ml of 0.32M sucrose buffered with 5 mM HEPES (pH 7.5), using a glass-Teflon tissue grinder. The homogenate was diluted to 5 ml with additional homogenization solution and centrifuged at 1,000 x g for 10 min. This procedure was repeated on the new pellet and the resulting supernatant was centrifuged at 12,000 x g for 20 min. A 3 layer discontinuous Percoll gradient consisting of 16 percent, 10 percent and 7.5 percent Percoll in HEPES-buffered sucrose was made with the final pellet dispersed in the top layer. After centrifugation at 15,000 x g for 20 min., the synaptosomes were recovered above the 16 percent layer with a Pasteur pipette, diluted with 8 ml of perfusion buffer (128 mM NaCl, 2.4 mM KCl, 3.2 mM CaCl2, 1.2 mM KH2 PO4, 1.2 mM MgSO4, 25 mM HEPES pH 7.4, 10 mM dextrose, 1 mM ascorbate, 0.01 mM pargyline), and centrifuged at 15,000 x g for 20 min. The new pellet was collected and re-suspended in perfusion buffer. The synaptosome suspension was incubated for 10 min. at 37° C. [^3 H]-Dopamine (Amersham, 40-60 Ci/mmol) was added to the suspension to give a final concentration of 0.1 uM, and the suspension was incubated for another 5 min. Using this method, 30 to 90 percent of the dopamine was taken up into the synaptosomes, as determined by scintillation counting following filtration through glass fiber filters soaked with 0.5 percent polyethyleneimine. A continuous perfusion system was used to monitor release following exposure to each ligand. Synaptosomes were loaded onto glass fiber filters (Gelman type A/E). Perfusion buffer was dripped onto the filters (0.2-0.3 ml/min.) and pulled through the filters with a peristaltic pump. Synaptosomes were washed with perfusion buffer for a minimum of 20 min. before addition of the ligand. After the addition of 0.2 ml of a solution containing various concentrations of ligand, the perfusate was collected into scintillation vials at 1 min. intervals and the dopamine released was quantified by scintillation counting. Peaks of radioactivity released above background were summed and the average basal release during that time was subtracted from the total.

Compound | Dopamine Release Emax [% nicotine]
CN1CCC[C@H]1c1cccnc1 [Sample No. C-1, (S)-(-)-nicotine, reference compound] | 100
CNCC/C=C/c1cncnc1 [Sample No. 2, (E)-N-methyl-4-(5-pyrimidinyl)-3-butene-1-amine] | 77
CNCCC#Cc1cccnc1 [Sample No. 4, N-Methyl-4-(3-pyridinyl)-3-butyne-1-amine] | 87
CNCC/C=C/c1ccc(C)nc1 [Sample No. 6, (E)-N-methyl-4-[3-(6-methylpyrindin)yl]-3-butene-1-amine] | 60
COc1cncc(/C=C/CCN)c1 [Sample No. 3, (E)-4-[3-(5-methoxypyridin)yl]-3-butene-1-amine monofumarate] | 95
CNCC/C=C/c1cccnc1 [Sample No. C-2, (E)-metanicotine, reference compound] | 80
NCC/C=C/c1cncnc1.O=C(O)/C=C/C(=O)O [Sample No. 1, (E)-4-(5-pyrimidinyl)-3-butene-1-amine monofumarate] | 113
CNCC/C=C\c1cccnc1 [Sample No. 5, (Z)-metanicotine] | 88

Source: patent US5824692A (priority 1995, dated 1998)
